We go through 3 compounds from patent US9321722B2, “Bis-indolic derivatives, their uses in particular as antibacterials” (UNIVERSITE JOSEPH FOURIER, priority 2011, dated 2016).

Converted amounts (≈) assume the structure as drawn. Counter-ions that a name gives are not always drawn. Like-named read-outs stand apart in the source and are kept apart here.

What is called inhibition is the change of the read-out against control, counted positive when it falls.

Experiment [1] relates to MRC5 (human lung fibroblast). Nature of the experiment: In vitro cytotoxicity. Type of experiment: cell-based. As for the experimental part: (§1) In vitro cytotoxicity was assayed on three cell lines—KB (human mouth carcinoma), MCR5 (human lung fibroblast) and HCT116 (human colon tumor). Results are presented in table III as % of cellular growth inhibition in presence of 10^−5 M and 10^−6 M of the tested bis-indolic derivatives.

For experiment [2], the system named is KB (human mouth carcinoma). Nature of the experiment: In vitro cytotoxicity. Type of experiment: cell-based. As for the experimental part:
as §1

The test system of experiment [3] is HCT116 (human colon tumor). Briefly: In vitro cytotoxicity. Type of experiment: cell-based. As for the experimental part: as §1
A further experiment deals with S. epidermidis CIP 81.55. Briefly: MIC microdilution (Table I-1). Type of experiment: cell-based, Staphylococcus epidermidis. Conditions: Staphylococcus epidermidis, CIP81, read after 18 hours, read-out: MIC. As for the experimental part: (§2) The microdilution method recommended by the Clinical and Laboratory Standard Institute [M07-A8, Vol. 29, N^o 2] was used. The activity of indolic compounds was tested against 29 bacterial strains belonging to 17 different species and 12 different genera (Staphylococcus, Streptococcus, Enterococcus, Listeria, Bacillus, Haemophilus, Escherichia, Klebsiella, Enterobacter, Serratia, Pseudomonas, and Acinetobacter). Bacterial inocula were prepared in Mueller Hinton broth (MH2, bioMerieux, Marcy L'Etoile, France), supplemented with 10% sheep blood for fastidious species (i.e., Streptococcus pneumoniae and Haemophilus influenzae). They were dispensed in 96 well microtiter plates (5×10^5 CFU/ml of final inoculum). Indolic compounds were added to the wells as to obtain two-fold serial concentrations (0.50-128 mg/L of final concentrations). Plates were incubated at 37° C. in ambient air, or at 37° C. in 5% CO2 enriched atmosphere for fastidious species. […] Drug-free cultures served as growth controls. Cultures receiving gentamicin, ciprofloxacin or cefotaxime served as positive controls.
A general note: Broth dilution looks for growth in wells or tubes with falling amounts of substance.

Experiment [4] relates to S. epidermidis CIP 103627. Nature of the experiment: MIC microdilution (Table I-1). Conditions: Staphylococcus epidermidis, CIP103627, read after 18 hours, read-out: MIC. Type of experiment: cell-based, Staphylococcus epidermidis. As for the experimental part: as §2
Experiment [5] has as its system S. epidermidis ATCC 12228. Nature of the experiment: MIC microdilution (Table I-1). Type of experiment: cell-based, Staphylococcus epidermidis. The note with it: Staphylococcus epidermidis, ATCC12228, read after 18 hours, read-out: MIC. As for the experimental part: as §2
The test system of experiment [6] is 29 bacterial strains belonging to 17 different species. Briefly: Intrinsic antibacterial activity, MIC on the bacterial panel. The experiment is classed as cell-based. Conditions: result in words. As for the experimental part:
as §2

For another experiment, the system named is S. aureus CIP 65.6. Briefly: MIC microdilution (Table I-1). The note with it: Staphylococcus aureus, CIP65, read after 18 hours, read-out: MIC. Type of experiment: cell-based, Staphylococcus aureus. As for the experimental part: as §2
The test system of a further experiment is S. aureus CIP 103428. Briefly: MIC microdilution (Table I-1). The experiment is classed as cell-based, Staphylococcus aureus. The note with it: Staphylococcus aureus, CIP103428, read after 18 hours, read-out: MIC. As for the experimental part: as §2
Another experiment deals with S. aureus ATCC 29213. Briefly: MIC microdilution (Table I-1). The experiment is classed as cell-based, Staphylococcus aureus. Conditions: Staphylococcus aureus, ATCC29213, read after 18 hours, read-out: MIC. As for the experimental part: as §2
The test system of the next experiment is S. aureus ATCC 6538. Briefly: MIC microdilution (Table I-1). The experiment is classed as cell-based, Staphylococcus aureus. Conditions: Staphylococcus aureus, ATCC6538, read after 18 hours, read-out: MIC. As for the experimental part: as §2
For the next experiment, the system named is S. aureus ATCC 9144. Briefly: MIC microdilution (Table I-1). The experiment is classed as cell-based, Staphylococcus aureus. Conditions: Staphylococcus aureus, ATCC9144, read after 18 hours, read-out: MIC. As for the experimental part:
as §2

The subject of experiment [7] is S. aureus CIP 65.25 (MRSA). Nature of the experiment: MIC microdilution (Table I-1). Conditions: Staphylococcus aureus, read after 18 hours, read-out: MIC. The experiment is classed as cell-based, Staphylococcus aureus. As for the experimental part:
as §2

In a further experiment the test system is S. aureus SA-1199B. Briefly: MIC microdilution (Table I-1). Type of experiment: cell-based, Staphylococcus aureus. Conditions: Staphylococcus aureus, SA1199B, 18 h. As for the experimental part:
as §2

Experiment [8] has as its system S. aureus ATCC 106414 (VISA). Briefly: MIC microdilution (Table I-1). The experiment is classed as cell-based, Staphylococcus aureus. Conditions: Staphylococcus aureus, read after 18 hours, read-out: MIC. As for the experimental part: as §2
Experiment [9] has as its system S. aureus ATCC 33592 (MRSA). Nature of the experiment: MIC microdilution (Table I-1). Conditions: Staphylococcus aureus, read after 18 hours, read-out: MIC. The experiment is classed as cell-based, Staphylococcus aureus. As for the experimental part:
as §2

The next experiment concerns E. faecalis ATCC 29212. Nature of the experiment: MIC microdilution (Table I-1). The experiment is classed as cell-based. The note with it: Enterococcus faecalis, ATCC29212, read after 18 hours, read-out: MIC. As for the experimental part: as §2
Experiment [10] has as its system S. pyogenes (group A) CIP 104226. Briefly: MIC microdilution (Table I-1). The experiment is classed as cell-based. Conditions: Streptococcus pyogenes, CIP104226, read after 18 hours, read-out: MIC. As for the experimental part:
as §2

In experiment [11] the test system is Haemophilus influenzae ATCC 49766. Briefly: MIC microdilution (Table I-1). Type of experiment: cell-based. The note with it: Haemophilus influenzae, ATCC49766, 18 h. As for the experimental part:
as §2

Experiment [12] deals with Enterobacter cloacae ATCC 13047. Briefly: MIC microdilution (Table I-1). The experiment is classed as cell-based. The note with it: ATCC13047, read after 18 hours. As for the experimental part:
as §2

For the next experiment, the system named is S. aureus ATCC 25923. Nature of the experiment: MIC microdilution (Table I-1). Type of experiment: cell-based. The note with it: Staphylococcus aureus, ATCC25923, read after 18 hours. As for the experimental part: as §2
The next experiment deals with S. pneumoniae ATCC 49619. Nature of the experiment: MIC microdilution (Table I-1). Type of experiment: cell-based. Conditions: Streptococcus pneumoniae, ATCC49619, read after 18 hours. As for the experimental part:
as §2

Experiment [13] has as its system Serratia marcescens CIP 103551. Briefly: MIC microdilution (Table I-1). The note with it: CIP103551, read after 18 hours. The experiment is classed as cell-based. As for the experimental part:
as §2

Experiment [14] deals with Listeria innocua CIP 80.11. Briefly: MIC microdilution (Table I-1). Type of experiment: cell-based. The note with it: CIP80, read after 18 hours, read-out: MIC. As for the experimental part:
as §2

The subject of another experiment is S. mitis CIP 103335. Nature of the experiment: MIC microdilution (Table I-1). Conditions: Streptococcus mitis, CIP103335, read after 18 hours, read-out: MIC. The experiment is classed as cell-based. As for the experimental part:
as §2

Experiment [15] relates to S. agalactiae (group B) ATCC 12400. Nature of the experiment: MIC microdilution (Table I-1). Conditions: Streptococcus agalactiae, ATCC12400, read after 18 hours, read-out: MIC. The experiment is classed as cell-based. As for the experimental part: as §2
The subject of experiment [16] is Pseudomonas aeruginosa CIP 5933. Briefly: MIC microdilution (Table I-1). The experiment is classed as cell-based. Conditions: CIP5933, read after 18 hours. As for the experimental part: as §2
Experiment [17] relates to Acinetobacter baumanii ATCC 19606. Briefly: MIC microdilution (Table I-1). The experiment is classed as cell-based. The note with it: Acinetobacter baumannii, ATCC19606, read after 18 hours. As for the experimental part:
as §2

Another experiment relates to E. faecium CIP 54.32. Nature of the experiment: MIC microdilution (Table I-1). Type of experiment: cell-based. The note with it: Enterococcus faecium, CIP54, read after 18 hours, read-out: MIC. As for the experimental part:
as §2

The subject of experiment [18] is Bacillus subtilis CIP 5262. Briefly: MIC microdilution (Table I-1). The experiment is classed as cell-based. Conditions: CIP5262, read after 18 hours, read-out: MIC. As for the experimental part: as §2
The test system of experiment [19] is Klebsiella pneumoniae ATCC 35657. Nature of the experiment: MIC microdilution (Table I-1). Type of experiment: cell-based. Conditions: ATCC35657, read after 18 hours, read-out: MIC. As for the experimental part:
as §2

In experiment [20] the test system is Escherichia coli ATCC 25922. Briefly: MIC microdilution (Table I-1). The experiment is classed as cell-based. The note with it: ATCC25922, read after 18 hours. As for the experimental part:
as §2

A further experiment has as its system S. pneumoniae ATCC 6303. Briefly: MIC microdilution (Table I-1). The experiment is classed as cell-based, Streptococcus pneumoniae. Conditions: Streptococcus pneumoniae, ATCC6303, read after 18 hours, read-out: MIC. As for the experimental part: as §2
Setting [21] is: MRC5, read-out: % of cellular growth inhibition.
Where [22] appears, read: read-out: % of cellular growth inhibition.
Setting [23] is: HCT-116, read-out: % of cellular growth inhibition.

For the compound `O=C(C(=O)N1CCOCC1c1c[nH]c2ccc(Br)cc12)c1c[nH]c2ccc(Br)cc12` (stereo not drawn) [Compound 6e, 1-(5-Bromo-1H-indol-3-yl)-2-(3-(5-bromo-1H-indol-3-yl)morpholino)ethane-1,2-dione], the inhibition at 10 µM turned out to be 0% in experiment [1] (MRC5, 10^−5 M, read-out: % of cellular growth inhibition); 29 ± 6% in experiment [2] (KB, 10^−5 M, read-out: % of cellular growth inhibition); 24 ± 6% in experiment [3] (HCT-116, HCT116, 10^−5 M, read-out: % of cellular growth inhibition). The inhibition at 1 µM is 0% in experiment [1] (MRC5, 10^−6 M, read-out: % of cellular growth inhibition (converted)); 0% in experiment [2] (KB, 10^−6 M, read-out: % of cellular growth inhibition (converted)); 3% in experiment [3] (HCT-116, HCT116, 10^−6 M, read-out: % of cellular growth inhibition (converted)).
With `O=C(C(=O)N1CCNCC1c1c[nH]c2ccc(Br)cc12)c1c[nH]c2ccc(Br)cc12` (stereo not drawn) [Compound 7, 1-(5-bromo-1H-indol-3-yl)-2-(2-(5-bromo-1H-indol-3-yl)piperazin-1-yl)ethane-1,2-dione hydrochloride], the inhibition at 1 µM in [1] (setting [21]), in [2] (setting [22]) and in experiment [3] (setting [23]) was 0% in each case. The inhibition at 10 µM in [1] (setting [21]) is 0%; in [2] (setting [22]), 4 ± 11%; in experiment [3] (setting [23]), 22 ± 7%.
Regarding `CC(C)(C)OC(=O)NCC(NC(=O)C(F)(F)F)c1c[nH]c2ccc(Br)cc12` (stereo not drawn) [Compound 13, tert-Butyl(2-(5-bromo-1H-indol-3-yl)-2-(2,2,2-trifluoroacetamido)ethyl)carbamate], the MIC was more than 128 µg/mL in the experiment on S. epidermidis CIP 81.55; more than 128 µg/mL in experiment [4]; more than 128 µg/mL in [5]; more than 128 µg/mL with S. aureus CIP 65.6; 64 µg/mL (≈ 142 µM) in the experiment with S. aureus CIP 103428; 128 µg/mL (≈ 284 µM) in the experiment on S. aureus ATCC 29213. Also, the MIC is 64 µg/mL (≈ 142 µM) in the experiment with S. aureus ATCC 6538; more than 128 µg/mL in the experiment on S. aureus ATCC 9144; more than 128 µg/mL in [7]; 64 µg/mL (≈ 142 µM) in the experiment with S. aureus SA-1199B; more than 128 µg/mL in experiment [8]; more than 128 µg/mL in [9]. Besides, the MIC in the experiment on E. faecalis ATCC 29212 was more than 128 µg/mL; in experiment [10], 128 µg/mL (≈ 284 µM); in experiment [11], more than 128 µg/mL; in experiment [12] it was more than 128 µg/mL; in the experiment on S. aureus ATCC 25923 it was more than 128 µg/mL; against S. pneumoniae ATCC 49619, 128 µg/mL (≈ 284 µM). In addition, the MIC in [13] was more than 128 µg/mL; in [14], more than 128 µg/mL; in the experiment on S. mitis CIP 103335 it was more than 128 µg/mL; in experiment [15], 128 µg/mL (≈ 284 µM); in experiment [16] it was more than 128 µg/mL; in experiment [17], more than 128 µg/mL. Further, the MIC in the experiment with E. faecium CIP 54.32 was more than 128 µg/mL; in experiment [18], 128 µg/mL (≈ 284 µM); in experiment [19] it was more than 128 µg/mL; in experiment [20] it was more than 128 µg/mL; with S. pneumoniae ATCC 6303 it was 128 µg/mL (≈ 284 µM). Also, the intrinsic antibacterial activity entry in experiment [6] is given as “lack of intrinsic antibacterial activity”.
